Consider one compound from BindingDB's records for doi:10.1016/j.bmcl.2004.06.042 (Universidad De Buenos Aires, 2004).

The test concerns the target Hypoxanthine-guanine phosphoribosyltransferase (Trypanosoma cruzi). Kind of test: Inhibition of hypoxanthine-guanine phosphoribosyltransferase (TcHPRT).

Molecules are shown by their SMILES.

By Ki is commonly meant a measure of affinity in units of concentration, obtained from inhibition or displacement. With `CN(C)CCC(O)(P(=O)(O)O)P(=O)(O)O` [hydrogen 3-(dimethylammonio)-1-hydroxy-1-(hydroxyphosphinato)propylphosphonate], the inhibitory constant (Ki) was determined as 126 µM.
